Laboratory results published in patent US20250388582A1, “NOVEL BICYCLIC HETEROARYL COMPOUND AND USE THEREOF” (ILDONG PHARMACEUTICAL CO., LTD., priority 2022, published 2025).

Experiments:
[1] = Microsomal metabolic stability assay; assay type: in vitro ADME, human or CD1 male mouse; conditions: Clint class; 1 μM compound, 0.5 mg/ml microsomes, NADPH, UDPGA, Alamethicin; species not given
Description: The microsomal metabolic stability assay was performed using pooled human or CD1 male mouse interspecies microsomes. Supplemental cofactors (NADPH, UDPGA) and microsomal membrane pore-forming factor (Alamethicin) were added to promote cytochrome P450 (CYP), UGT reactivity to the target compound. Test compounds (1 μM incubation concentration) and microsomes (0.5 mg/ml incubation concentration) were diluted in 0.1 M phosphate buffer, pH 7.4, and incubated (37° C.). The reaction was initiated by the addition of NADPH (1 mM), UDPGA (1 mM) and Alamethicin (25 μg/mg). The incubation times were 0, 5, 15, 30, and 45 minutes, and at each time point, the reaction was terminated by adding acetonitrile containing internal standard (IS)(1:3 ratio). The plate was then sealed, centrifuged (3000 rpm, 20 min, 4° C.), and the supernatant was analyzed by LC-MS/MS. Hepatic extraction ratio values were calculated from the measured in vitro clearance and Intrinsic clearance (Clint) values were calculated from the assay results, and the respective Clint values were categorized into Low, Medium, and High categories based on the reference document (ref. Prostaglandins & other lipid mediators 136 (2018): 90-95).

PIKFYVE = target: T1, PIKFYVE (Homo sapiens, UniProt Q9Y2I7); assay: NanoBRET TE Intracellular Kinase Assay, interaction of PIKFYVE and compounds in HEK293 cells; assay type: cell-based; conditions: IC50 class from BRET; HEK293 cells expressing PIKFYVE-NanoLuc; 2 hours incubation
T1 construct: host or cells: HEK293 (ATCC, CRL-1573)
How it was run: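 HEK293 cells transiently expressing a PIKFYVE-NanoLuc fusion were incubated 2 h at 37 °C, 5% CO2 with compound plus NanoBRET tracer. BRET was read after adding Nano-Glo substrate, giving intracellular target engagement by tracer displacement.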

human GST-PIKFYVE = target: T2, human GST-PIKFYVE (Homo sapiens, UniProt Q9Y2I7); assay: ADP-Glo kinase assay, enzyme inhibition activity against human PIKFYVE (Carna biosciences); assay type: biochemical; conditions: inhibitory activity at final compound concentration 10 nM; 1 hour at room temperature
T2 construct: GST; purchased Carna biosciences 11-118
How it was run: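 Human GST-PIKFYVE (glutathione Sepharose-purified) was reacted with substrate and ATP for 1 h at room temperature in 50 mM MOPS, 1 mM DTT, pH 7.2, with compound at 10 nM final. ADP formed was read by ADP-Glo luminescence; inhibition was calculated against no-enzyme (100%) and no-compound (0%) controls.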

T1 sequence (Q9Y2I7 whole entry): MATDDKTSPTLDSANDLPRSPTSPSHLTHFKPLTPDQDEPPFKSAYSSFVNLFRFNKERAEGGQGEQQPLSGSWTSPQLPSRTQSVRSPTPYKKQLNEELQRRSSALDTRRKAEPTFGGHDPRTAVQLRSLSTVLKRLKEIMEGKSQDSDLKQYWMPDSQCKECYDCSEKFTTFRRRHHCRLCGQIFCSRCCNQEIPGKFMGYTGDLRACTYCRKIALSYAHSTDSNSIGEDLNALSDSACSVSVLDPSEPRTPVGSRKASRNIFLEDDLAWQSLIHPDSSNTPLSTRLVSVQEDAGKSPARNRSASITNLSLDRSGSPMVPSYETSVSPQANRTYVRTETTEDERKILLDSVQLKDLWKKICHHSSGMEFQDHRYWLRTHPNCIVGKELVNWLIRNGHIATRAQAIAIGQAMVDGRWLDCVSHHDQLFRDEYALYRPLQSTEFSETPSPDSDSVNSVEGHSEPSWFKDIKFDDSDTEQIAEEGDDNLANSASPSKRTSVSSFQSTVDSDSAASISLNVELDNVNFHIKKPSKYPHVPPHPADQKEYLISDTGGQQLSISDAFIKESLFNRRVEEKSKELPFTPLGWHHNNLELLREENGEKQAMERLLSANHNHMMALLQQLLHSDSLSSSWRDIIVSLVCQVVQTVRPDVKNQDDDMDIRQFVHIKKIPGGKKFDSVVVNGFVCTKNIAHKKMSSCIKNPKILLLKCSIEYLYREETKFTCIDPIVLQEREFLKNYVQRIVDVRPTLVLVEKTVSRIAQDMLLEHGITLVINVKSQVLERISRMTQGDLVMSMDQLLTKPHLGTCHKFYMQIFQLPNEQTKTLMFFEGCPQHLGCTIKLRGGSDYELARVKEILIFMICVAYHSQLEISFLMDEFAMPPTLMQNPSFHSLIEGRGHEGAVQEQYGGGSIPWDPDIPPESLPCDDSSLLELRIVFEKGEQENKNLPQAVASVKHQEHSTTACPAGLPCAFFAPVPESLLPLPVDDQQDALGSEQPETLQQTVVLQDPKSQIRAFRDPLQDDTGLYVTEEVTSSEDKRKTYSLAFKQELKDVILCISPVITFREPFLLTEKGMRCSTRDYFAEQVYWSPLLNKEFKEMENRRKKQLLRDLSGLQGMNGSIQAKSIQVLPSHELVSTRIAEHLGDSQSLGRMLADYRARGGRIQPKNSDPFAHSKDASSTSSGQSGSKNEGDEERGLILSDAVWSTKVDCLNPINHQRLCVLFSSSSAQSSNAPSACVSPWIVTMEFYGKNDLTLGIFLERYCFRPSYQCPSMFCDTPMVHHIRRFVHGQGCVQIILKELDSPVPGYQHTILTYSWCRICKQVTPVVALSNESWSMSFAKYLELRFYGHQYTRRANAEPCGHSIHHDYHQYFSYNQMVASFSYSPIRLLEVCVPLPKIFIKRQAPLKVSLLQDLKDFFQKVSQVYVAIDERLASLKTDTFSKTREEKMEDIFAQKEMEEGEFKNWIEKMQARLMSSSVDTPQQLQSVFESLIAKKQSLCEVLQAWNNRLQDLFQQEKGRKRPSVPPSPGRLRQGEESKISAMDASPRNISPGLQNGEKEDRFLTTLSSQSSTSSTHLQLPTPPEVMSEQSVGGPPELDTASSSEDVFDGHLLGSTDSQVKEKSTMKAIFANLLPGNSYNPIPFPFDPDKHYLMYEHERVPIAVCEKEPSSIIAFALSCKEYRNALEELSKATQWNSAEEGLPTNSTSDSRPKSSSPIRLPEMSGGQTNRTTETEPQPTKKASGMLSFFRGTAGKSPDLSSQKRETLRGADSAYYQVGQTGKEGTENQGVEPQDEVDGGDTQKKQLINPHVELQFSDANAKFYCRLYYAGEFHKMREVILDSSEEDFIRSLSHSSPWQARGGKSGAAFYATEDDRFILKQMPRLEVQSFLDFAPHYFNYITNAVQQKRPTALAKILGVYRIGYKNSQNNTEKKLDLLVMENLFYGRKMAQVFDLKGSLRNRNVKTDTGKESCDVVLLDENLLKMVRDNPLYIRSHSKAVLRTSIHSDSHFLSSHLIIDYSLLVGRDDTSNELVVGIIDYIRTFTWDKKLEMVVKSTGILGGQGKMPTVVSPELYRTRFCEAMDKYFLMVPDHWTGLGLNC
T2 sequence (Q9Y2I7 whole entry): as above

In the case of `Cc1cccc(/C=N/Nc2nc(N3CCOCC3)nc3c2ncn3CC(=O)c2ccccn2)c1` [Example 23, (E)-2-(6-(2-(3-methylbenzylidene)hydrazinyl)-2-morpholino-9H-purin-9-yl)-1-(pyridin-2-yl)ethan-1-one], the Microsomal metabolic stability [1] is reported as “Medium (Medium 8.8~48,)”, the IC50 (PIKFYVE) is reported as ≤ 10 nM and the “ADP-Glo kinase assay (%, 10 nM)” value (human GST-PIKFYVE) is reported as 90.82%.
With `O=C(Cn1cnc2c(N/N=C/c3c[nH]c4ccccc34)nc(N3CCOCC3)nc21)c1ccccn1` [Example 24, (E)-2-(6-(2-((1H-indol-3-yl)methylene)hydrazinyl)-2-morpholino-9H-purin-9-yl)-1-(pyridin-2-yl)ethan-1-one] the Microsomal metabolic stability [1] was “Medium (Medium 8.8~48,)”, the IC50 (PIKFYVE) was 10 to 20 nM and the “ADP-Glo kinase assay (%, 10 nM)” value (human GST-PIKFYVE) was 72.15%.
With `Cc1cccc(/C=N/Nc2nc(N3CCOCC3)nc3c2ncn3CC(=O)c2ccc[nH]2)c1` [Example 34, (E)-2-(6-(2-(3-methylbenzylidene)hydrazinyl)-2-morpholino-9H-purin-9-yl)-1-(1H-pyrrol-2-yl)ethan-1-one] the Microsomal metabolic stability [1] was “Medium (Medium 8.8~48,)” and the “ADP-Glo kinase assay (%, 10 nM)” value (human GST-PIKFYVE) was 74.72%.
With `COc1ccc(C(=O)Cn2cnc3c(N/N=C/c4cccc(C)c4)nc(N4CCOCC4)nc32)cc1` [Example 39, (E)-1-(4-methoxyphenyl)-2-(6-(2-(3-methylbenzylidene)hydrazinyl)-2-morpholino-9H-purin-9-yl)ethan-1-one] the Microsomal metabolic stability [1] was “Medium (Medium 8.8~48,)”, the IC50 (PIKFYVE) was 10 to 20 nM and the “ADP-Glo kinase assay (%, 10 nM)” value (human GST-PIKFYVE) was 74.99%.
For `Cc1ccc(C(=O)Cn2cnc3c(N/N=C/c4cccc(C)c4)nc(N4CCOCC4)nc32)cc1` [Example 42, (E)-2-(6-(2-(3-methylbenzylidene)hydrazinyl)-2-morpholino-9H-purin-9-yl)-1-(p-tolyl)ethan-1-one], the Microsomal metabolic stability [1] was “Low (Low <8.8,)”, the IC50 (PIKFYVE) was ≤ 10 nM and the “ADP-Glo kinase assay (%, 10 nM)” value (human GST-PIKFYVE) was 81.60%.
In the case of `Cc1cccc(/C=N/Nc2nc(N3CCOCC3)nc3c2ncn3CC(=O)c2ccccc2C(F)(F)F)c1` [Example 43, (E)-2-(6-(2-(3-methylbenzylidene)hydrazinyl)-2-morpholino-9H-purin-9-yl)-1-(2-(trifluoromethyl)phenyl)ethan-1-one], the Microsomal metabolic stability [1] is reported as “Medium (Medium 8.8~48,)”, the IC50 (PIKFYVE) is reported as ≤ 10 nM and the “ADP-Glo kinase assay (%, 10 nM)” value (human GST-PIKFYVE) is reported as 80.86%.
For `Cc1cccc(/C=N/Nc2nc(N3CCOCC3)nc3c2ncn3CC(=O)c2ccccc2Cl)c1` [Example 48, (E)-1-(2-chlorophenyl)-2-(6-(2-(3-methylbenzylidene)hydrazinyl)-2-morpholino-9H-purin-9-yl)ethan-1-one], the Microsomal metabolic stability [1] was “Low (Low <8.8,)”, the IC50 (PIKFYVE) was ≤ 10 nM and the “ADP-Glo kinase assay (%, 10 nM)” value (human GST-PIKFYVE) was 90.25%.
For `Cc1cccc(-c2ccn(-c3nc(N4CCOCC4)nc4c3ncn4CC(=O)c3ccccn3)n2)c1` [Example 64, 2-(2-morpholino-6-(3-(m-tolyl)-1H-pyrazol-1-yl)-9H-purin-9-yl)-1-(pyridin-2-yl)ethan-1-one], the Microsomal metabolic stability [1] was “Medium (Medium 8.8~48,)”, the IC50 (PIKFYVE) was ≤ 10 nM and the “ADP-Glo kinase assay (%, 10 nM)” value (human GST-PIKFYVE) was 82.48%.
With `Cc1cccc(/C=N/Nc2nc(N3CCOCC3)nc3c2ncn3C2CN(S(C)(=O)=O)C2)c1` [Example 85, (E)-4-(6-(2-(3-methylbenzylidene)hydrazinyl)-9-(1-(methylsulfonyl)azetidin-3-yl)-9H-purin-2-yl)morpholine] the Microsomal metabolic stability [1] was “Medium (Medium 8.8~48,)” and the “ADP-Glo kinase assay (%, 10 nM)” value (human GST-PIKFYVE) was 70.06%.
With `Cc1cccc(/C=N/Nc2nc(N3CCOCC3)nc3c2ncn3-c2cccnc2)c1` [Example 96, (E)-4-(6-(2-(3-methylbenzylidene)hydrazinyl)-9-(pyridin-3-yl)-9H-purin-2-yl)morpholine] the Microsomal metabolic stability [1] was “Medium (Medium 8.8~48,)”, the IC50 (PIKFYVE) was ≤ 10 nM and the “ADP-Glo kinase assay (%, 10 nM)” value (human GST-PIKFYVE) was 85.95%.
In the case of `COc1cc(-n2cnc3c(N/N=C/c4cccc(C)c4)nc(N4CCOCC4)nc32)ccn1` [Example 101, (E)-4-(9-(2-methoxypyridin-4-yl)-6-(2-(3-methylbenzylidene)hydrazinyl)-9H-purin-2-yl)morpholine], the Microsomal metabolic stability [1] is reported as “Low (Low <8.8,)”, the IC50 (PIKFYVE) is reported as ≤ 10 nM and the “ADP-Glo kinase assay (%, 10 nM)” value (human GST-PIKFYVE) is reported as 91.20%.
For `Cc1cccc(/C=N/Nc2nc(N3CCOCC3)nc3c2ncn3-c2cccnc2C)c1` [Example 109, (E)-4-(6-(2-(3-methylbenzylidene)hydrazinyl)-9-(2-methylpyridin-3-yl)-9H-purin-2-yl)morpholine], the Microsomal metabolic stability [1] was “Medium (Medium 8.8~48,)”, the IC50 (PIKFYVE) was 10 to 20 nM and the “ADP-Glo kinase assay (%, 10 nM)” value (human GST-PIKFYVE) was 79.21%.
For `Cc1cccc(/C=N/Nc2nc(N3CCOCC3)nc3c2ncn3-c2sc(C)nc2C)c1` [Example 111, (E)-4-(9-(2,4-dimethylthiazol-5-yl)-6-(2-(3-methylbenzylidene)hydrazinyl)-9H-purin-2-yl)morpholine], the Microsomal metabolic stability [1] was “Medium (Medium 8.8~48,)”, the IC50 (PIKFYVE) was ≤ 10 nM and the “ADP-Glo kinase assay (%, 10 nM)” value (human GST-PIKFYVE) was 89.77%.
In the case of `COc1ccc(-n2cnc3c(N/N=C/c4cccc(C)c4)nc(N4CCOCC4)nc32)cc1` [Example 120, (E)-4-(9-(4-methoxyphenyl)-6-(2-(3-methylbenzylidene)hydrazinyl)-9H-purin-2-yl)morpholine], the Microsomal metabolic stability [1] is reported as “medium”, the IC50 (PIKFYVE) is reported as ≤ 10 nM and the “ADP-Glo kinase assay (%, 10 nM)” value (human GST-PIKFYVE) is reported as 88.76%.
With `COc1cccc(-n2cnc3c(N/N=C/c4cccc(C)c4)nc(N4CCOCC4)nc32)c1` [Example 121, (E)-4-(9-(3-methoxyphenyl)-6-(2-(3-methylbenzylidene)hydrazinyl)-9H-purin-2-yl)morpholine] the Microsomal metabolic stability [1] was “Medium (Medium 8.8~48,)”, the IC50 (PIKFYVE) was ≤ 10 nM and the “ADP-Glo kinase assay (%, 10 nM)” value (human GST-PIKFYVE) was 92.33%.
For `Cc1cccc(/C=N/Nc2nc(N3CCOCC3)nc3c2ncn3-c2cccc(Cl)c2)c1` [Example 122, (E)-4-(9-(3-chlorophenyl)-6-(2-(3-methylbenzylidene)hydrazinyl)-9H-purin-2-yl)morpholine], the Microsomal metabolic stability [1] was “Medium (Medium 8.8~48,)”, the IC50 (PIKFYVE) was ≤ 10 nM and the “ADP-Glo kinase assay (%, 10 nM)” value (human GST-PIKFYVE) was 87.32%.
With `Cc1cccc(/C=N/Nc2nc(N3CCOCC3)nc3c2ncn3-c2cccc(C#N)c2)c1` [Example 126, (E)-3-(6-(2-(3-methylbenzylidene)hydrazinyl)-2-morpholino-9H-purin-9-yl)benzonitrile] the Microsomal metabolic stability [1] was “Low (Low <8.8,)”, the IC50 (PIKFYVE) was ≤ 10 nM and the “ADP-Glo kinase assay (%, 10 nM)” value (human GST-PIKFYVE) was 87.21%.
In the case of `Cc1ccc(-n2cnc3c(N/N=C/c4cccc(C)c4)nc(N4CCOCC4)nc32)nc1` [Example 143, (E)-4-(6-(2-(3-methylbenzylidene)hydrazinyl)-9-(5-methylpyridin-2-yl)-9H-purin-2-yl)morpholine], the IC50 (PIKFYVE) is reported as ≤ 10 nM and the “ADP-Glo kinase assay (%, 10 nM)” value (human GST-PIKFYVE) is reported as 90.79%.
With `Cc1cccc(/C=N/Nc2nc(N3CCOCC3)nc3c2ncn3-c2cncc(C)c2)c1` [Example 145, (E)-4-(6-(2-(3-methylbenzylidene)hydrazinyl)-9-(5-methylpyridin-3-yl)-9H-purin-2-yl)morpholine] the IC50 (PIKFYVE) was ≤ 10 nM and the “ADP-Glo kinase assay (%, 10 nM)” value (human GST-PIKFYVE) was 94.29%.
With `Cc1cccc(/C=N/Nc2nc(N3CCOCC3)nc3c2ncn3-c2ccc(C#N)cn2)c1` [Example 146, (E)-6-(6-(2-(3-methylbenzylidene)hydrazinyl)-2-morpholino-9H-purin-9-yl)nicotinonitrile] the IC50 (PIKFYVE) was ≤ 10 nM and the “ADP-Glo kinase assay (%, 10 nM)” value (human GST-PIKFYVE) was 79.77%.
In the case of `Cc1cccc(/C=N/Nc2nc(N3CCOCC3)nc3c2ncn3-c2cc(C)ns2)c1` [Example 148, (E)-4-(6-(2-(3-methylbenzylidene)hydrazinyl)-9-(3-methylisothiazol-5-yl)-9H-purin-2-yl)morpholine], the IC50 (PIKFYVE) is reported as ≤ 10 nM and the “ADP-Glo kinase assay (%, 10 nM)” value (human GST-PIKFYVE) is reported as 73.88%.
With `Cc1cccc(/C=N/n2cnc3c(Nc4cccnc4)nc(N4CCOCC4)nc32)c1` [Example 191, (E)-9-((3-methylbenzylidene)amino)-2-morpholino-N-(pyridin-3-yl)-9H-purin-6-amine] the IC50 (PIKFYVE) was 10 to 20 nM and the “ADP-Glo kinase assay (%, 10 nM)” value (human GST-PIKFYVE) was 76.59%.
In the case of `Cc1cccc(/C=N/Nc2nc(N3CCOCC3)nc3c(-c4c(C)noc4C)cccc23)c1` [Example 210, (E)-4-(8-(3,5-dimethylisoxazol-4-yl)-4-(2-(3-methylbenzylidene)hydrazinyl)quinazolin-2-yl)morpholine], the IC50 (PIKFYVE) is reported as 20 to 30 nM and the “ADP-Glo kinase assay (%, 10 nM)” value (human GST-PIKFYVE) is reported as 65.10%.
In the case of `COc1cccc(-c2cccc3c(N/N=C/c4cccc(C)c4)nc(N4CCOCC4)nc23)c1` [Example 211, (E)-4-(8-(3-methoxyphenyl)-4-(2-(3-methylbenzylidene)hydrazinyl)quinazolin-2-yl)morpholine], the IC50 (PIKFYVE) is reported as 20 to 30 nM and the “ADP-Glo kinase assay (%, 10 nM)” value (human GST-PIKFYVE) is reported as 64.14%.
With `COc1ccc(-c2cccc3c(N/N=C/c4cccc(C)c4)nc(N4CCOCC4)nc23)cc1` [Example 213, (E)-4-(8-(4-methoxyphenyl)-4-(2-(3-methylbenzylidene)hydrazinyl)quinazolin-2-yl)morpholine] the IC50 (PIKFYVE) was 10 to 20 nM and the “ADP-Glo kinase assay (%, 10 nM)” value (human GST-PIKFYVE) was 68.30%.
